According to patent US20250268903A1, “RXFP1 AGONISTS” (BRISTOL-MYERS SQUIBB COMPANY, priority 2021, published 2025):

Biological target: T1, human RXFP1 (Homo sapiens, UniProt Q9HBX9)
T1 construct: expressed in transfected cells
T1 sequence (Q9HBX9 1-757): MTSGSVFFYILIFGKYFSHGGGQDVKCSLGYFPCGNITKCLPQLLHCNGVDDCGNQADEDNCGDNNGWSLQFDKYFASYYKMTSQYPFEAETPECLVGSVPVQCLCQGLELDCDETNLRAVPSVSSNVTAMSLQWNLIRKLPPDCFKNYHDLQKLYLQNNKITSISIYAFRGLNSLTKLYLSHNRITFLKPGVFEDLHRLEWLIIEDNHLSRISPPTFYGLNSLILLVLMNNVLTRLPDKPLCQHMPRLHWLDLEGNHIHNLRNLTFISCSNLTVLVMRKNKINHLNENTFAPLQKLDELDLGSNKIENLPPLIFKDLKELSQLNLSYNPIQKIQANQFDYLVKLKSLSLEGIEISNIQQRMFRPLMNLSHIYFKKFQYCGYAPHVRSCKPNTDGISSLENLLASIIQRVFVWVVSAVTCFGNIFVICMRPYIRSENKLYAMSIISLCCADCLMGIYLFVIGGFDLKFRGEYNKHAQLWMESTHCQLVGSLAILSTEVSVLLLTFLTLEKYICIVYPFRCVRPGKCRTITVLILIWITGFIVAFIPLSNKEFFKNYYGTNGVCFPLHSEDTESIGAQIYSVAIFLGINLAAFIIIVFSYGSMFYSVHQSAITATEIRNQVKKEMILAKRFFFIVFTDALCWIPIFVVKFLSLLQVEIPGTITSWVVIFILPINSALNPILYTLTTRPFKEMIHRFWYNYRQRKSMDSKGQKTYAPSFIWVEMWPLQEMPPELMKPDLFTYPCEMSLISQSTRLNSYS
Test: hRXFP1 HEK293 cAMP assay (HTRF)
Type: cell-based
Settings: HEK293 cells stably expressing human RXFP1, 30 min at room temperature
Summary of the method: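 hRXFP1-HEK293 stable line; HBSS + Ca/Mg, 20 mM HEPES, 0.05% BSA, 0.5 mM IBMX; cpd 0.010 nM–50 μM, 2% DMSO; 30 min RT; lysis, HTRF cAMP detection; 4-PL fit.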

Q: `COc1ccc(CN2CCOCC2)cc1C(=O)N[C@@H]1C2CCC(/C2=C/C(F)(F)F)[C@@H]1C(=O)Nc1ccc(F)c(C(F)(F)F)c1` (stereo partly drawn) [Example 13, (2S,3R,7Z)N-[4-fluoro-3-(trifluoromethyl)phe-nyl]-3-{2-methoxy-5-[(morpholin-4-yl)methyl]benzamido}-7-(2,2,2-trifluoroethylidene)bi-cyclo[2.2.1]heptane-2-carboxamide] was tested. Which EC50 did it give?
A: 625 nM

Q: For `COc1ccc(C(=O)N2CCO[C@@H](CO)C2)cc1C(=O)N[C@H]1[C@@H](C(=O)Nc2ccc(F)c(C(F)(F)F)c2)[C@H]2CC[C@@H]1/C2=C\C1CC1` [Example 231, (1R,2S,3R,4R,7Z)-7-(cyclopropylmethyl-idene)-N-[4-fluoro-3-(trifluoromethyl)phenyl]-3-{5-[(2R)-2-(hydroxymethyl)morpholine-4-carbonyl]-2-methoxybenzamido} bicyclo[2.2.1] heptane-2-carboxamide], which EC50 is on record?
A: 32 nM

Q: `COc1c(F)cc(C2CC3CC(CO)CC3C2)cc1C(=O)N[C@H]1[C@@H](C(=O)Nc2ccc(F)c(C(F)(F)F)c2)[C@H]2CC[C@@H]1/C2=C\C1CCCC1` (stereo partly drawn) [Example 370, (1R,2S,3R,4R,7Z)-7-(cyclopentyl-methylidene)-N-[4-fluoro-3-(trifluoromethyl)phenyl]-3-{3-fluoro-5-[5-(hydroxymethyl)-octahydropentalen-2-yl]-2-methoxybenzamido} bicyclo[2.2.1]heptane-2-carboxamide] was tested. Which EC50 did it give?
A: 9.7 nM

Q: With `COc1ccc(C(=O)N(C)CCS(C)(=O)=O)cc1C(=O)N[C@H]1[C@@H](C(=O)Nc2ccc(F)c(C(F)(F)F)c2)[C@H]2CC[C@@H]1/C2=C\C1CC1` [Example 250, N3-[(1R,2R,3S,4R,7Z)-7-(cyclopropyl-methylidene)-3-{[4-fluoro-3-(trifluoromethyl)phenyl]carbamoyl}bicyclo[2.2.1]heptan-2-yl]-N1-(2-methane-sulfonylethyl)-4-methoxy-N1-methylbenzene-1,3-dicarboxamide] as the compound, how does the EC50 read?
A: 34.9 nM

Q: Which EC50 does the source give for `COc1ccc(C2CC3CC(CO)CC32)cc1C(=O)N[C@H]1[C@@H](C(=O)Nc2ccc(F)c(C(F)(F)F)c2)[C@H]2CC[C@@H]1/C2=C\C1CC1` (single isomer, unassigned) [Example 348] here?
A: 34 nM

Q: “(1R,4R,7Z)-7- (cyclopentyl- methylidene)- N-[4-fluoro-3- (trifluoromethyl) phenyl]-3-[5-(3- hydroxy-3- methylbutyl)-2- methoxybenzamido] bicyclo[2.2.1] heptane-2- carboxamide [Example 268]” was tested. Which EC50 did it give?
A: 29.6 nM

Q: `CCCC/C=C1\C2CCC1[C@H](C(=O)Nc1ccc(F)c(C(F)(F)F)c1)[C@@H]2NC(=O)c1cc(CCC(C)(C)O)ccc1OC` (stereo partly drawn) [Example 89, (2S,3R,7Z)-N-[4-fluoro-3-(trifluoromethyl)phe-nyl]-3-[5-(3-hydroxy-3-methylbutyl)-2-methoxybenzamido]-7-pentylidenebicyclo [2.2.1]heptane-2-carboxamide] was tested. Which EC50 did it give?
A: 45 nM

Q: How did the EC50 turn out when `COc1ccc(S(=O)(=O)N2CCO[C@@H](CO)C2)cc1C(=O)NC1C2CCC(/C2=C/C2CC2)[C@@H]1C(=O)Nc1ccc(F)c(C(F)(F)F)c1` (stereo partly drawn) [Example 201, (2S,3R,7Z)-7-(cyclopropylmethyli-dene)-N-[4-fluoro-3-(trifluoromethyl)phe-nyl]-3-(5-{[(2R)-2-(hydroxymethyl)mor-pholin-4-yl]sulfonyl}-2-methoxybenzamido) bicyclo[2.2.1]heptane-2-carboxamide] was run?
A: 14 nM

Q: For `COc1ccc(S(=O)(=O)N2CCN(C(=O)OC(C)(C)C)[C@@H](CO)C2)cc1C(=O)N[C@H]1[C@@H](C(=O)Nc2ccc(F)c(C(F)(F)F)c2)[C@H]2CC[C@@H]1/C2=C\C(F)(F)F` [Example 226, tert-butyl (2R)-4-(3-{[(1R,2R,3S,4R,7Z)-3-{[4-fluoro-3-(trifluoromethyl)phenyl]carbamoyl}-7-(2,2,2-trifluoroethylidene)bicyclo[2.2.1]heptan-2-yl]carbamoyl}-4-methoxy-benzenesulfonyl)-2-(hydroxymethyl) piperazine-1-carboxylate], which EC50 is on record?
A: 1730 nM

Q: How did the EC50 turn out when `COc1ccc(C2CC(CO)C2)cc1C(=O)N[C@H]1[C@@H](C(=O)Nc2ccc(F)c(C(F)(F)F)c2)[C@H]2CC[C@@H]1/C2=C\C1CC1` (stereo partly drawn) [Example 330, (1R,2S,3R,4R,7Z)-7-(cyclopropylmethylidene)-N-[4-fluoro-3-(trifluoromethyl)phenyl]-3-{5-[3-(hydroxymethyl)cyclobutyl]-2-methoxybenzamido} bicyclo[2.2.1]heptane-2-carboxamide] was run?
A: 79 nM

Q: With `COc1ccc(CCCN(C(=O)OC(C)(C)C)C2CCC2)cc1C(=O)N[C@@H]1C2CCC(/C2=C/C(F)(F)F)[C@@H]1C(=O)Nc1ccc(F)c(C(F)(F)F)c1` (stereo partly shown) [Example 120] as the compound, how does the EC50 read?
A: 304 nM

Q: With `COc1ccc(COC2(C(=O)NCCO)CC2)cc1C(=O)N[C@@H]1C2CCC(/C2=C/C2CC2)[C@@H]1C(=O)Nc1ccc(F)c(C(F)(F)F)c1` (stereo partly shown) [Example 17] as the compound, how does the EC50 read?
A: 121 nM

Q: How did the EC50 turn out when `COc1ccc(COC2=NOC3CC(O)CC23)cc1C(=O)N[C@H]1[C@@H](C(=O)Nc2ccc(F)c(C(F)(F)F)c2)[C@H]2CC[C@@H]1/C2=C\C1CC1` (stereo partly drawn) [Example 301, (1R,2S,3R,4R,7Z)-7-(cyclopropylmethylidene)-N-[4-fluoro-3-(trifluoromethyl)phenyl]-3-{5-[({5-hydroxy-3aH,4H,5H,6H,6aH cyclopenta[d][1,2]oxazol-3-yl}oxy)methyl]-2-methoxybenzamido} bicyclo[2.2.1] heptane-2-carboxamide] was run?
A: 21.6 nM

Q: With `COc1ccc(/C=C/C(=O)N2CCO[C@@H](CO)C2)cc1C(=O)N[C@H]1[C@@H](C(=O)Nc2ccc(F)c(C(F)(F)F)c2)[C@H]2CC[C@@H]1/C2=C\C(F)(F)F` [Example 310] as the compound, how does the EC50 read?
A: 87 nM

Q: How did the EC50 turn out when `COc1ccc(S(=O)(=O)N2CCN(C(=O)OC(C)(C)C)[C@H](CO)C2)cc1C(=O)N[C@H]1[C@@H](C(=O)Nc2ccc(F)c(C(F)(F)F)c2)[C@H]2CC[C@@H]1/C2=C\C(F)(F)F` [Example 225, tert-butyl (2S)-4-(3-{[(1R,2R,3S,4R,7Z)-3-{[4-fluoro-3-(trifluoromethyl)phenyl]carbamoyl}-7-(2,2,2-trifluoroethylidene)bicyclo[2.2.1]heptan-2-yl]carbamoyl}-4-methoxy-benzenesulfonyl-2-(hydroxymethyl)piperazine-1-carboxylate] was run?
A: 4270 nM

Q: For `COc1ccc(S(=O)(=O)N2CCN3C(=O)CCC3C2)cc1C(=O)N[C@H]1[C@@H](C(=O)Nc2ccc(F)c(C(F)(F)F)c2)[C@H]2CC[C@@H]1/C2=C\C1CC1` (stereo partly drawn) [Example 223, (1R,2S,3R,4R,7Z)-7-(cyclopropyl-methylidene)-N-[4-fluoro-3-(trifluoromethyl)phenyl]-3-[2-methoxy-5-({6-oxo-octahydropyrrolo[1,2-a]piperazin-2-yl}sulfonyl)benzamido] bicyclo[2.2.1] heptane-2-carboxamide], which EC50 is on record?
A: 145 nM

Q: How did the EC50 turn out when `COc1ccc(/C=C/C(=O)N2CCOCC2)cc1C(=O)N[C@H]1[C@@H](C(=O)Nc2ccc(F)c(C(F)(F)F)c2)[C@H]2CC[C@@H]1/C2=C\C1CC1` [Example 306, (1R,2S,3R,4R,7Z)-7-(cyclopropyl-methylidene)-N-[4-fluoro-3-(trifluoromethyl)phenyl]-3-{2-methoxy-5-[(1E)-3-(morpholin-4-yl)-3-oxoprop-1-en-1-yl]benzamido} bicyclo[2.2.1] heptane-2-carboxamide] was run?
A: 5.26 nM

Q: With `COc1ccc(CCCNC(=O)CO)cc1C(=O)N[C@@H]1C2CCC(/C2=C/C(F)(F)F)[C@@H]1C(=O)Nc1ccc(F)c(C(F)(F)F)c1` (stereo partly drawn) [Example 116, (2S,3R,7Z)-N-[4-fluoro-3-(trifluoromethyl)phe-nyl]-3-{5-[3-(2-hydroxyacetamido)pro-pyl]-2-methoxybenzamido}-7-(2,2,2-trifluoroethylidene)bi-cyclo[2.2.1]heptane-2-carboxamide] as the compound, how does the EC50 read?
A: 940 nM

Q: How did the EC50 turn out when `COc1ccc(C23CCC(C(C)(C)O)(CC2)CC3)cc1C(=O)N[C@H]1[C@@H](C(=O)Nc2ccc(F)c(C(F)(F)F)c2)[C@H]2CC[C@@H]1/C2=C\C1CC1` (single isomer, unassigned) [Example 274] was run?
A: 99.8 nM

Q: With `COc1ccc(C2CC2C(=O)O)cc1C(=O)N[C@@H]1C2CCC(/C2=C/C(F)(F)F)[C@@H]1C(=O)Nc1ccc(F)c(C(F)(F)F)c1` (single isomer, unassigned) [Example 62] as the compound, how does the EC50 read?
A: 172 nM

Q: Which EC50 does the source give for `COc1ccc(C2CCCCC2O)cc1C(=O)N[C@@H]1C2CCC(/C2=C/C(F)(F)F)[C@@H]1C(=O)Nc1ccc(F)c(C(F)(F)F)c1` (mixture of isomers) [Example 59] here?
A: 1270 nM

Q: `COc1ccc(C2CC3CC(O)CC32)cc1C(=O)N[C@H]1[C@@H](C(=O)Nc2ccc(F)c(C(F)(F)F)c2)[C@H]2CC[C@@H]1/C2=C\C1CC1` (single isomer, unassigned) [Example 342] was tested. Which EC50 did it give?
A: 27.8 nM
